Columns and labels:
[1] = high doses; cited from earlier work
[2] = test system: rats with unilateral lesions in the substantia nigra; settings: at 100 to 500 times larger doses than the (+) enantiomer; cited from earlier work
[3] = test system: PC12 cells that express mutant G93A SOD1 as a YFP fusion protein; experiment: high throughput cytotoxicity protection assay
Procedure: This idea was tested by examining the sensitivity of PC12 cells to SOD1 aggregates in the presence and absence of proteasome inhibitor MG132. PC12 cells expressing no SOD1, wild type SOD1, G85R SOD1 or G93A SOD1 were grown with or without MG132 (FIG. 1). […] The ability of protein aggregates to induce cell death was examined by treating G93A SOD1-expressing cells with MG132 for 24 h, removing the MG132 by washing and assaying cell viability after another 24 h.
PC12 cells expressing G93A SOD1 were treated with 100 nM MG132 with or without co-treatment with geldanamycin or radicicol.

(−) butaclamol
effect on epinephrine-induced mortality [1]: devoid of any such activity | behavioral activity [2]: devoid of behavioral activity | activity in the protection assay [3]: only the eutomer (+butaclamol) showed activity
